Source: ChEMBL document CHEMBL4196106, “From Naproxen Repurposing to Naproxen Analogues and Their Antiviral Activity against Influenza A Virus” (J Med Chem, 2018)

Key:
[1] = Selectivity index, ratio of CC50 for MDCK cells to IC50 for oseltamivir-resistant Influenza A virus (A/Puerto Rico/8/1934(H1N1)) infected in MDCK cells at MOI of 10^-3 after 18 hrs; format: toxicity, cell-based; details: dog, read-out: Ratio CC50/IC50
[2] = tested on: Influenza A virus; experiment: Antiviral activity against oseltamivir-resistant Influenza A virus (A/Puerto Rico/8/1934(H1N1)) infected in MDCK cells at MOI of 10^-3 assessed as decrease in viral load after 18 hrs by immunofluorescence analysis; format: functional, organism-based

Structure (SMILES) | selectivity ratio at 18 h [1] | IC50 [2]
COc1ccc2cc(-c3c(C(=O)[O-])cccc3C(=O)[O-])ccc2c1.[Na+].[Na+] | 1480 | 8.8 µM
COc1ccc2cc(-c3c(C(=O)[O-])ccc(Oc4ccc(N)cc4)c3C(=O)[O-])ccc2c1.[Na+].[Na+] | 12000 | 1 µM
COc1ccc2cc(-c3c(C(=O)O)cc(Oc4ccc(N)cc4)cc3C(=O)O)ccc2c1 | 1620 | 8 µM
